# According to ChEMBL document CHEMBL4402613, “Targeting ALK2: An Open Science Approach to Developing Therapeutics for the Treatment of Diffuse Intrinsic Pontine Glioma” (J Med Chem, 2020):
# Active and inactive are the calls of the source. The rule behind the calls is not given here.
# Assays:
# [1] = biological target: T1, TGF-beta receptor type-1 (Homo sapiens, UniProt P36897); format: single protein
# T1 sequence (P36897 whole entry): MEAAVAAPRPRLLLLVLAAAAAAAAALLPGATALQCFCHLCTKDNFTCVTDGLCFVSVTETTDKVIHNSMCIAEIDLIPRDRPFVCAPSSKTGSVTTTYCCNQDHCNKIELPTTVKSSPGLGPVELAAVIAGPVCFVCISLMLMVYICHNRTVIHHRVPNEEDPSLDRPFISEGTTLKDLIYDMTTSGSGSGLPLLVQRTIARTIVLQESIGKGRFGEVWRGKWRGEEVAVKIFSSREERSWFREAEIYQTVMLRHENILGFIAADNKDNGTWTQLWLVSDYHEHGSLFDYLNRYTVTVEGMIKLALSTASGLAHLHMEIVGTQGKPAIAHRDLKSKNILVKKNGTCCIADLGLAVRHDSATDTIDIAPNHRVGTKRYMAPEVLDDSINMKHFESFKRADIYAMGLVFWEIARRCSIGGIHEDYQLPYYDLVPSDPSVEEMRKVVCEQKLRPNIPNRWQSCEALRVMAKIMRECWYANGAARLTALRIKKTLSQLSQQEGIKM
# Description: Inhibition of human ALK5 using casein as substrate in presence of 10 uM [gamma33P] ATP by radioactive assay
# [2] = biological target: T2, Activin receptor type-1 (Homo sapiens, UniProt Q04771); test: Inhibition of C-terminal nanoluciferase-fused ALK2 (unknown origin) expressed in HEK293 cells incubated for 2 hrs followed by NanoBRET NanoGlo Substrate addition by NanoBRET assay; format: cell-based
# T2 sequence (Q04771 whole entry): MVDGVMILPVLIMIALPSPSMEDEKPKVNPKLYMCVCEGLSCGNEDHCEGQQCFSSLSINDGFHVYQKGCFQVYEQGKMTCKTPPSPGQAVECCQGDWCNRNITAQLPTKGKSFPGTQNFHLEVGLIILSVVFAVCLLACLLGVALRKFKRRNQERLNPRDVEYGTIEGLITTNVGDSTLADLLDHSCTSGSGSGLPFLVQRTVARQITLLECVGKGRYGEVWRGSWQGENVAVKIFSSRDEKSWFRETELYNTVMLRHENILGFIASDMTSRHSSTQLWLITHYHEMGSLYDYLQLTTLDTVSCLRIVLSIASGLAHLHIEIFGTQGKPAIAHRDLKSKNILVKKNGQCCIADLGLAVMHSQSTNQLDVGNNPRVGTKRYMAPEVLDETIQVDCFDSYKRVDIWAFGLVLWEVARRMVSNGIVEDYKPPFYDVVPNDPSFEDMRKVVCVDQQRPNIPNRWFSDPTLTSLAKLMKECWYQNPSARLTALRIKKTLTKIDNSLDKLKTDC
# [3] = biological target: Activin receptor type-1 (Homo sapiens, UniProt Q04771, G328V); test: Inhibition of ALK2 G328V mutant (unknown origin)
# Sequence of Activin receptor type-1 (Homo sapiens, UniProt Q04771, G328V) (Q04771 21-509 G328V limits assumed): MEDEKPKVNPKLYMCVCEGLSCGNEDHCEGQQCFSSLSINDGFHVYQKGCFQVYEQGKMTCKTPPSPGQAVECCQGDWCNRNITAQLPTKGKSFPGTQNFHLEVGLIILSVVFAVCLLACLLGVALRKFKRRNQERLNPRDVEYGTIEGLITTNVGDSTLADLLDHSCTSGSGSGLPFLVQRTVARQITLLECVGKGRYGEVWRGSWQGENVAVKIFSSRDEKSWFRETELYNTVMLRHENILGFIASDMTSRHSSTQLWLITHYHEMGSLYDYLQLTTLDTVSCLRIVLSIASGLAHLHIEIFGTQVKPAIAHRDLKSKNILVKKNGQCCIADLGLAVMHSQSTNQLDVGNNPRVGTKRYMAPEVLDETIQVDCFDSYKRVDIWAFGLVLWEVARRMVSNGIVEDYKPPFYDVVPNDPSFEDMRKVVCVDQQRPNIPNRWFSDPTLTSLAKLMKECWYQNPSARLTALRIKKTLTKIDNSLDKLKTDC
# [4] = biological target: T2, Activin receptor type-1
# Description: Inhibition of human ALK2 using casein as substrate in presence of 10 uM [gamma33P] ATP by radioactive assay
# [5] = biological target: Activin receptor type-1 (Homo sapiens, UniProt Q04771, R258G); test: Inhibition of ALK2 R258G mutant (unknown origin)
# Sequence of Activin receptor type-1 (Homo sapiens, UniProt Q04771, R258G) (Q04771 21-509 R258G limits assumed): as the sequence (Q04771 21-509 G328V limits assumed) above, with R238G, V308G counted along it
# [6] = biological target: Activin receptor type-1 (Homo sapiens, UniProt Q04771, R206H); test: Inhibition of human ALK2 R206H mutant using casein as substrate in presence of 10 uM [gamma33P] ATP by radioactive assay
# Sequence of Activin receptor type-1 (Homo sapiens, UniProt Q04771, R206H) (Q04771 21-509 R206H limits assumed): as the sequence (Q04771 21-509 G328V limits assumed) above, with R186H, V308G counted along it
# [7] = biological target: T1, TGF-beta receptor type-1; format: cell-based, HEK293
# Description: Inhibition of ALK5 (unknown origin) expressed in HEK293 cells transfected with CAGA-luciferase and Renilla luciferase reporter measured after 24 hrs by dual luciferase reporter assay
# [8] = mouse, in vivo, po, 10 mg/kg, 24 h
# [9] = mouse, in vivo, po, 10 mg/kg, 24 h; remark: listed apart in the source
# [10] = mouse, microsomes, 1 h, 1 µM
# Description: Microsomal stability in CD-1 mouse liver microsomes assessed as parent compound remaining at 1 uM and 37 degree C measured after 60 mins in presence of NADP+ by LC-QTOF/MS analysis
# [11] = in vitro; conditions: human, Caco-2
# Description: Apparent permeability across basolateral to apical membrane in human Caco2 cells at 5 uM incubated for 120 mins in orbital shaker by LC-QTOF/MS analysis
# [12] = in vitro; conditions: human, Caco-2; remark: listed apart in the source
# Description: Apparent permeability across apical to basolateral membrane in human Caco2 cells at 5 uM incubated for 120 mins in orbital shaker by LC-QTOF/MS analysis
# [13] = human, microsomes, 1 h, 1 µM
# Description: Microsomal stability in human liver microsomes assessed as parent compound remaining at 1 uM and 37 degree C measured after 60 mins in presence of NADP+ by LC-QTOF/MS analysis
# [14] = mouse, in vivo, po, 10 mg/kg, 24 h; remark: listed apart in the source
# Description: Half life in CB17 SCID mouse at 10 mg/kg, po measured up to 24 hrs by LC-MS/MS analysis
# [15] = biological target: T3, Non-receptor tyrosine-protein kinase TNK1 (Homo sapiens) (UniProt Q13470); test: Inhibition of TNK1 (unknown origin) at 1 uM
# T3 sequence (whole entry): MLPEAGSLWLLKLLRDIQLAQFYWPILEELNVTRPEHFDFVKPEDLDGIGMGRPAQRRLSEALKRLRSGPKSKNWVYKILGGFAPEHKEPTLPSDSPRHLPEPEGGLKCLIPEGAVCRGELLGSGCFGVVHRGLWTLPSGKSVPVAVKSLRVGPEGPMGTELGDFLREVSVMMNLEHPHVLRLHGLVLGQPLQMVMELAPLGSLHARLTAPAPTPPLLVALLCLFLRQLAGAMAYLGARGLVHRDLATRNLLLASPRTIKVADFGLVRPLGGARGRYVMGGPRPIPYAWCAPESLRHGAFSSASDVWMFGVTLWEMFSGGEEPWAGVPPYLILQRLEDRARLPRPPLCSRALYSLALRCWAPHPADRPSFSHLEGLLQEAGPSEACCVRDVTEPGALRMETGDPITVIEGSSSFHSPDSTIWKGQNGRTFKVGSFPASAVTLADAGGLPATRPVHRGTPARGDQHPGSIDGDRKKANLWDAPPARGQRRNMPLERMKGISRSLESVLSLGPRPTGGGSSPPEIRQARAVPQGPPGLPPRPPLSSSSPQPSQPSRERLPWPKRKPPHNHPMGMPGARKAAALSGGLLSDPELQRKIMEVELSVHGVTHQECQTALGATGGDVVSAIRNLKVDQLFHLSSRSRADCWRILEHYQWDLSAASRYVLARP
# [16] = biological target: T4, Serine/threonine-protein kinase A-Raf (Homo sapiens) (UniProt P10398); test: Inhibition of ARAF (unknown origin) at 1 uM
# T4 sequence (whole entry): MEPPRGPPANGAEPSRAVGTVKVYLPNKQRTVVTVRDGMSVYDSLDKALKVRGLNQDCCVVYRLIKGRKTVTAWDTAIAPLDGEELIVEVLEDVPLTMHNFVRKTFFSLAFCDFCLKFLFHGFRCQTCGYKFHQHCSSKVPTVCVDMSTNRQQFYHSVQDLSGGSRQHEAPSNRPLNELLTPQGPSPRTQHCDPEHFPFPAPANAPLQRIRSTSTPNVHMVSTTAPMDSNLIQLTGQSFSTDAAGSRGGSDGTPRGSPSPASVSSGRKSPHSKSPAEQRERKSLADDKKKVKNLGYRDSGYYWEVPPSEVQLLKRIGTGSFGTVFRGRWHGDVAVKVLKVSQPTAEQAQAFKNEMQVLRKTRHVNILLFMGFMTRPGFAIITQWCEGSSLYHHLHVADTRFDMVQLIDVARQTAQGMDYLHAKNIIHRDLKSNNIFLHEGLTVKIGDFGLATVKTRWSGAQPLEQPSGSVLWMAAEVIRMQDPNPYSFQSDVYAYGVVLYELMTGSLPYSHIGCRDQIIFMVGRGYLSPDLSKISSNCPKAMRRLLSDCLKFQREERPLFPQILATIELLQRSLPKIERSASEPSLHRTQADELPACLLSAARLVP
# [17] = biological target: Misshapen-like kinase 1 (Homo sapiens) (UniProt Q8N4C8); test: Inhibition of MINK (unknown origin) at 1 uM
# Sequence of Misshapen-like kinase 1 (Homo sapiens) (Q8N4C8 whole entry, looked up): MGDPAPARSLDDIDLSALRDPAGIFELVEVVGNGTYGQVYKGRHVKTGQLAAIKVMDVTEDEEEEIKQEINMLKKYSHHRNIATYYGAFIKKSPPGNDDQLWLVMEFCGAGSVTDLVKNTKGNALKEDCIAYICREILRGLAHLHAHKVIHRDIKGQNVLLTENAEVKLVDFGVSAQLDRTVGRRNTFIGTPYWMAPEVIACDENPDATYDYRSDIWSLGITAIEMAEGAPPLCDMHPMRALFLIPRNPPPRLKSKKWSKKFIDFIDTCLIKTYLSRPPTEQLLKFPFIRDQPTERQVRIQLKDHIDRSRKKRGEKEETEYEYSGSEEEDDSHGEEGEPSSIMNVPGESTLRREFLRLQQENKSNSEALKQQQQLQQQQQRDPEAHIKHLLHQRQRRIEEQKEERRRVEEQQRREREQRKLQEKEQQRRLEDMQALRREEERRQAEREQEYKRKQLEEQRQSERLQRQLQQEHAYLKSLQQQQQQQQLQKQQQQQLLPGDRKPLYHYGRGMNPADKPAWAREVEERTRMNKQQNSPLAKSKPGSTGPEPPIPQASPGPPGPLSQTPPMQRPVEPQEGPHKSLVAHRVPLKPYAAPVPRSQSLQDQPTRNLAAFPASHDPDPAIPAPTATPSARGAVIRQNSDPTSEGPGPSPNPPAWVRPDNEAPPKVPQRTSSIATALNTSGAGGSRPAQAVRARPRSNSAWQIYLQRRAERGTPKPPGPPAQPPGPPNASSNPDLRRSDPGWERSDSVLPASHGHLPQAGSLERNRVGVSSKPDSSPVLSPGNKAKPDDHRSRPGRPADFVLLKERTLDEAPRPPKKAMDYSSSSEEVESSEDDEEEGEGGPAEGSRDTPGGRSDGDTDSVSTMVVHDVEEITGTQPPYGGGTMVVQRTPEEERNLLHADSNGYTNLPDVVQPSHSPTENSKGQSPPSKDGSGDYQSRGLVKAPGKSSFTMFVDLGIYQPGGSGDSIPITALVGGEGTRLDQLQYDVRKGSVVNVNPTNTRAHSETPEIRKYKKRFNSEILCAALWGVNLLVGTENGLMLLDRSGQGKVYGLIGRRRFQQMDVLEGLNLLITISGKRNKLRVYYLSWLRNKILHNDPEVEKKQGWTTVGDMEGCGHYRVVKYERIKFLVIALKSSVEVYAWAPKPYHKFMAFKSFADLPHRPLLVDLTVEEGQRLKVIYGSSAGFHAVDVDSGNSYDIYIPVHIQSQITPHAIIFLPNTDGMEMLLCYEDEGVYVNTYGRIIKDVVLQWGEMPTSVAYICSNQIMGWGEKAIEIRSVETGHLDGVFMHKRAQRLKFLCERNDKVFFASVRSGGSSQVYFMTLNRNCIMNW
# [18] = biological target: Bone morphogenetic protein receptor type-1B (Homo sapiens) (UniProt O00238); test: Inhibition of ALK6 (unknown origin) at 1 uM
# Sequence of Bone morphogenetic protein receptor type-1B (Homo sapiens) (O00238 whole entry): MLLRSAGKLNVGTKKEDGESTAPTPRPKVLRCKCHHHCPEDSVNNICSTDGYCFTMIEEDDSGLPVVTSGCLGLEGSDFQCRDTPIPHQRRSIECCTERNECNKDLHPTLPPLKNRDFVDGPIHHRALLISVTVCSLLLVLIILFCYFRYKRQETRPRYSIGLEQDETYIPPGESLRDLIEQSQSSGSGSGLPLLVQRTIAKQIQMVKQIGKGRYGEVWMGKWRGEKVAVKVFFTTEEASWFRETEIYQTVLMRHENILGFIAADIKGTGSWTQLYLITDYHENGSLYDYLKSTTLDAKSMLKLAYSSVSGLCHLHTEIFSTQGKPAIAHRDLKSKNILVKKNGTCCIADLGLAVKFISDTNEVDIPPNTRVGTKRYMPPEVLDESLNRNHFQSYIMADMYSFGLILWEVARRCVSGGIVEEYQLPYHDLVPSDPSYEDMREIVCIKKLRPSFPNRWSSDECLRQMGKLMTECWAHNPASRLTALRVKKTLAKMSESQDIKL
# [19] = biological target: Mitogen-activated protein kinase kinase kinase kinase 4 (Homo sapiens) (UniProt O95819); test: Inhibition of MAP4K4 (unknown origin) at 1 uM
# Sequence of Mitogen-activated protein kinase kinase kinase kinase 4 (Homo sapiens) (O95819 2-1239 limits assumed): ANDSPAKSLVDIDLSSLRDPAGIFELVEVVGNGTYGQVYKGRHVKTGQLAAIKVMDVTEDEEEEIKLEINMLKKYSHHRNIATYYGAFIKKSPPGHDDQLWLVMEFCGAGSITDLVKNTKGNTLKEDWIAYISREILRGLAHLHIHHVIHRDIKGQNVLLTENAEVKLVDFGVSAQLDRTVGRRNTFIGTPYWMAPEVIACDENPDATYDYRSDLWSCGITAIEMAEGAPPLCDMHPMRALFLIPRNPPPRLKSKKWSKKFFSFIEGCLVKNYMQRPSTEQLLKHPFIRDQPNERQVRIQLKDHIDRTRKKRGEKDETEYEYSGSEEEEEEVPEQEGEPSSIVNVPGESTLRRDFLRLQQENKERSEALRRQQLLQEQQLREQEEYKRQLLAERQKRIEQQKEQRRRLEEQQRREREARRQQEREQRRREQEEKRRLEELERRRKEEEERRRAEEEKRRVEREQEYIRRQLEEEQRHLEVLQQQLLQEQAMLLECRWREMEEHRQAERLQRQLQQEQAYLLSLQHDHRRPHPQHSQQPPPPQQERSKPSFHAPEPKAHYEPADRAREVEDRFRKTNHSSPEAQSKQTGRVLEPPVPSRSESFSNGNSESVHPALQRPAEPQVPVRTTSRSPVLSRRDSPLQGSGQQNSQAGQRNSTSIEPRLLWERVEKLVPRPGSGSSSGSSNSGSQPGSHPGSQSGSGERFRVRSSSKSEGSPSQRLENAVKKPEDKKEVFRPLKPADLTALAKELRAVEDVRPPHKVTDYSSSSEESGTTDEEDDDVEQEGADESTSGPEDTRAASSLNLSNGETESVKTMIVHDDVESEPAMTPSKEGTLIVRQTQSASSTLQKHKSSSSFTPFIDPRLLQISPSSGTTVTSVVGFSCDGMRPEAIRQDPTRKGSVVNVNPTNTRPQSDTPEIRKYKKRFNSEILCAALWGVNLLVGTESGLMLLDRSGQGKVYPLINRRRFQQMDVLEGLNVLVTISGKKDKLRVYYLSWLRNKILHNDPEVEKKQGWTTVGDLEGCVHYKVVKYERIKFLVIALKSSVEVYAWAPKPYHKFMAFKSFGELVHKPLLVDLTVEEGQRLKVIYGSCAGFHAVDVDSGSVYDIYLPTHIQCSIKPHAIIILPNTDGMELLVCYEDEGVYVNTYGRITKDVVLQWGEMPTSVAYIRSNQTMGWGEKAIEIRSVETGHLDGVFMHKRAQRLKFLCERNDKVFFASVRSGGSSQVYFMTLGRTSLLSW
# [20] = biological target: Bone morphogenetic protein receptor type-1A (Homo sapiens) (UniProt P36894); test: Inhibition of ALK3 (unknown origin) at 1 uM
# Sequence of Bone morphogenetic protein receptor type-1A (Homo sapiens) (P36894 whole entry): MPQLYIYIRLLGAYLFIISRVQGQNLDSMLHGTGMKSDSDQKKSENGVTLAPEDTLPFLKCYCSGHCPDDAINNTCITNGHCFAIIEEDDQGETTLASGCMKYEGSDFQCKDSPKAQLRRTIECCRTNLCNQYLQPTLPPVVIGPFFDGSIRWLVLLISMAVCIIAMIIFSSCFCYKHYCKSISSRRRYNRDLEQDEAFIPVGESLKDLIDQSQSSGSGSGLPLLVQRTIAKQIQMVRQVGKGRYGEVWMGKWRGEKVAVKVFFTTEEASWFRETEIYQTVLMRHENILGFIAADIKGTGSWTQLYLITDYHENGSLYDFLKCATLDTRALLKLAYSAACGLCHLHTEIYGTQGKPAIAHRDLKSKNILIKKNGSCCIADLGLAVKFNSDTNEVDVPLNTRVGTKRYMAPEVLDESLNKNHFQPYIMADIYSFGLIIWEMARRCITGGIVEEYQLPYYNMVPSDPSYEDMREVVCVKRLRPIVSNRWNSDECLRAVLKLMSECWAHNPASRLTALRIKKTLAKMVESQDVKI
# [21] = biological target: Activin receptor type-1-like (Homo sapiens) (UniProt P37023); test: Inhibition of ALK1 (unknown origin) at 1 uM
# Sequence of Activin receptor type-1-like (Homo sapiens) (P37023 whole entry): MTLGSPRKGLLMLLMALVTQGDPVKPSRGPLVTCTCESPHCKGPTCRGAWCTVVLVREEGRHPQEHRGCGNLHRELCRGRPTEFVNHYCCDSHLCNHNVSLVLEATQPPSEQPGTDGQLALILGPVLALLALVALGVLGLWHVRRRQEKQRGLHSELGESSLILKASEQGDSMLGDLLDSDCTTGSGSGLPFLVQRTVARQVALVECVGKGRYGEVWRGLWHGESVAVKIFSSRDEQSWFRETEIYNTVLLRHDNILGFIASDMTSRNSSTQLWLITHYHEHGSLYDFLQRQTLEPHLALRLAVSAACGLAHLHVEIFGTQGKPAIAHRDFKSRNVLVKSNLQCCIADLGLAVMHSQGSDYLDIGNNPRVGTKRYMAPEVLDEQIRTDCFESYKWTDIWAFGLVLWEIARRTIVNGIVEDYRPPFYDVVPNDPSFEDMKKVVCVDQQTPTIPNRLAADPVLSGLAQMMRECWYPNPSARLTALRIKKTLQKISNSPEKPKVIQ
SMILES,IC50 [1] [nM],IC50 [2] [nM],IC50 [4] [nM],IC50 [7] [nM],further results
COc1cc(-c2cncc(-c3ccc(N4CCN(C)CC4)cc3)c2C)cc(OC)c1C(N)=O,75,19,< 3,249,IC50 [3]: < 2 nM; IC50 [5]: < 2 nM; IC50 [6]: 4 nM
COc1cc(-c2cncc(-c3ccc(N4CCNCC4)cc3)c2C)cc(Cl)c1C(N)=O,2080,93,,> 5000,IC50 [3]: < 2 nM; IC50 [5]: 4 nM; IC50 [6]: 5 nM
COc1ccc(-c2cncc(-c3ccc(N4CCNCC4)cc3)c2C)cc1C(N)=O,> 5000,694,> 1000,> 5000,
COCc1cc(-c2cncc(-c3ccc(N4CCNCC4)cc3)c2C)ccc1C(N)=O,> 5000,3840,687,> 5000,
COc1c(C(N)=O)csc1-c1cncc(-c2ccc(N3CCNCC3)cc2)c1C,> 5000,> 5000,> 1000,> 5000,
CNC(=O)c1ccc(-c2cncc(-c3ccc(N4CCNCC4)cc3)c2C)cc1OC,> 5000,> 5000,> 1000,> 5000,
COc1cc(-c2cncc(-c3ccc(N4CCNCC4)cc3)c2C)cc(F)c1C(N)=O,,81,,,"AUC [8]: 296 ng·h/mL; IC50 [3]: 4 nM; Cmax [9]: 97 ng/mL; IC50 [5]: 7 nM; Stability [10]: > 85%; IC50 [6]: 8 nM; Papp B→A at 2 h, 5 µM [11]: 10.7 ×10⁻⁶ cm/s; Papp A→B at 2 h, 5 µM [12]: 0.3 ×10⁻⁶ cm/s; Stability [13]: > 85%; t1/2 [14]: 1.31 h"
COc1cc(-c2cncc(-c3ccc(N4CCNCC4)cc3)c2C)sc1C(N)=O,> 5000,3370,751,> 5000,
COc1cc(C(N)=O)cc(-c2cncc(-c3ccc(N4CCNCC4)cc3)c2C)c1,> 5000,588,102,> 5000,
Cc1c(-c2ccc(N3CCNCC3)cc2)cncc1-c1ccc2c(c1)CNC2=O,> 5000,2340,,4810,IC50 [3]: 171 nM; IC50 [5]: 363 nM; IC50 [6]: 226 nM
Cc1c(-c2ccc(C(N)=O)cc2)cncc1-c1ccc(N2CCNCC2)cc1,> 5000,2770,477,> 5000,
COc1cc(-c2cncc(-c3ccc(N4CCNCC4)cc3)c2C)ccc1C(N)=O,,55,,,IC50 [3]: 5 nM; IC50 [5]: 9 nM; IC50 [6]: 9 nM
COc1cc(-c2cncc(-c3ccc(N4CCNCC4)cc3)c2C)cc(OC)c1C(N)=O,,178,,,
Cc1c(-c2ccc(N3CCNCC3)cc2)cncc1-c1ccc(C(N)=O)c(F)c1,> 5000,1010,263,> 5000,
COc1c(-c2cncc(-c3ccc(N4CCNCC4)cc3)c2C)csc1C(N)=O,> 5000,2810,712,> 5000,
COc1cc(-c2cncc(-c3ccc(N4CCN(C(C)C)CC4)cc3)c2C)cc(OC)c1C(N)=O,66,18,5,276,
COc1cc(-c2cncc(-c3ccc(N4CCNCC4)cc3)c2C)ccc1C(=O)N(C)C,> 5000,> 5000,> 1000,> 5000,
COc1cc(-c2cncc(-c3ccc(N4C[C@@H](C)N(C)[C@@H](C)C4)cc3)c2C)cc(OC)c1C(N)=O,52,,3,283,
COc1cc(-c2cncc(-c3ccc(N4CCN(C(C)C)CC4)cc3)c2C)cc(F)c1C(N)=O,,,,,inhibition [15]: Active; inhibition [16]: Active; inhibition [17]: Active; inhibition [18]: Active; inhibition [19]: Active; inhibition [20]: Active; inhibition [21]: Active
